Experimental data taken from patent US12584105B2, “Autologous cell replacement therapy for Parkinson's disease” (The McLean Hospital Corporation, priority 2019, dated 2026).

Experiments:
[1] = tested on: undifferentiated C4 cells (human iPSCs); test: Quercetin treatment of undifferentiated hiPSCs (Trypan blue, hemocytometer); format: cell-based
Description: To test the effect of Quercetin on human iPSC removal, human iPSCs were plated on 6 well plates. Cells were treated with each concentration of Quercetin (5, 10, 20, 40, and 100 μM) for 2, 6, 16, and 24 hours. After each time point, Quercetin containing medium was replaced with fresh medium and cells cultured for 48 hours from the initial Quercetin treatment time. Cells were dissociated using TrypLE and cell viability was measured using Trypan blue exclusion and hemocytometer.
The most critical issue for hPSC-based cell therapy is to establish safety by removing residual undifferentiated cells with neoplastic potential. Based on the previous finding that BIRC5 (encoding survivin) is highly expressed in hPSCs compared to somatic cells (40), we hypothesized that chemical inhibition of survivin would selectively eliminate remaining undifferentiated hiPSCs. However, since survivin is known to be important for neuronal precursors (41, 42), it is important to test whether this strategy interferes with mDAP generation. Among survivin inhibitors (40), we chose the flavonoid quercetin (3,3′,4′,5,7-pentahydroxyflavone) because this natural compound is present at high concentration in commonly consumed vegetables and fruits (43). We first treated 100,000 undifferentiated C4 cells with 5, 10, 20, 40, and 100 μM quercetin for 2, 6, 16, and 24 hours. […]

[2] = tested on: D9 C4 cells (mostly neuronal precursors); test: Quercetin treatment of D9 differentiating cells, outcome on D11; format: cell-based, human; conditions: different concentrations (5-100 μM) for 16 hours on D9
From the text: The most critical issue for hPSC-based cell therapy is to establish safety by removing residual undifferentiated cells with neoplastic potential. Based on the previous finding that BIRC5 (encoding survivin) is highly expressed in hPSCs compared to somatic cells (40), we hypothesized that chemical inhibition of survivin would selectively eliminate remaining undifferentiated hiPSCs. However, since survivin is known to be important for neuronal precursors (41, 42), it is important to test whether this strategy interferes with mDAP generation. Among survivin inhibitors (40), we chose the flavonoid quercetin (3,3′,4′,5,7-pentahydroxyflavone) because this natural compound is present at high concentration in commonly consumed vegetables and fruits (43). We first treated 100,000 undifferentiated C4 cells with 5, 10, 20, 40, and 100 μM quercetin for 2, 6, 16, and 24 hours. After washing with fresh media, cells were further cultured for a total of 48 hours. […] To test whether quercetin affects survival of mDAPs, we treated D9 C4 cells (mostly neuronal precursors) with different concentrations of quercetin for 16 hours and examined outcome on D11.

[3] = tested on: undifferentiated C4 cells; test: Colony forming assay (AP staining) of C4 cells diluted among hDFs; format: cell-based, human
Description: (§1) For colony forming assay, each cell dilution was cultured for 6 days in E8 medium and pluripotent colonies were identified by AP staining. For the quercetin removal of undifferentiated cells, cells were treated with 40 μM quercetin for 16 hours and cultured in fresh E8 medium. For fluorescence activated cell sorting (FACS), C4 cells were dissociated using TrypLE and filtered through a 70 μm cell strainer. Single cell suspensions were first fixed with 4% formaldehyde for 10 mins and suspended in permeabilization buffer for 15 min on ice. After blocking for 30 min, cells were incubated with primary labeled antibodies (PE conjugated anti SSEA-4, TRA-1-60) for 1 hour on ice in the dark. After washing with PBS with 1% FBS, FACS analysis was performed using a BD Accuri C6 system (BD Bioscience) and data analyses were carried out according to manufacturer's instructions. Fluorochrome matched isotype controls were used and subtracted during analysis. For qRT-PCR assay, total RNA from all dilutions was extracted and subjected to qRT-PCR to determine OCT4 cycle times (Ct) value. OCT4 copy numbers were calculated from the equation curve that was generated from qRT-PCR of purified OCT4 partial sequence. Then, OCT4 copy numbers were plotted against PSC numbers.

[4] = tested on: undifferentiated C4 cells; test: OCT4 qRT-PCR assay for undifferentiated cells; format: cell-based, human; conditions: D14, D21 and D28 after quercetin treatment (40 μM at D9 for 16 hours)
Description: as §1

[5] = tested on: NANOG+ undifferentiated cells; test: NANOG immunostaining of D14 cells; format: cell-based, human; conditions: D14, with quercetin treatment
Description: hiPSC derived dopaminergic neurons were washed with phosphate-buffered saline (PBS) (with Ca^2+ and Mg^2+) and fixed with 4% formaldehyde in PBS (pH 7.4) for 10 mins. Cells were incubated for 1 hr in blocking solution (0.3% Triton X-100 and 1% horse serum in PBS) at room temperature. Cells were incubated with primary antibodies in PBS containing 0.3% Triton X-100 and 1% horse serum overnight. Cells were then incubated with the proper fluorescence-conjugated secondary antibodies with Hoechst 33342 for nuclei staining at room temperature for 1 hr. Cell images were obtained by confocal microscopy (KEYENCE, Osaka, Japan). Data regarding specific cell populations were determined from microscopic images using ImageJ software (11). To measure apoptotic cells, cells were stained for cleaved caspase 3, an apoptotic marker, and Hoechst 33342, a DNA-binding nuclear dye. After staining with Hoechst 33342, compacted chromatin is brighter than in normal cells, and the condensed nuclei were counted by fluorescence microscopy. Data regarding specific cell populations were determined from microscopic images by ImageJ software.

[6] = tested on: undifferentiated iPSCs; test: Residual undifferentiated iPSCs in final cell product (immunostaining and real-time PCR); format: cell-based, human; conditions: final cell products at day 28 after quercetin
From the text: After treatment with quercetin, the final cell products (at day 28) had no detectable remaining undifferentiated iPSCs (with an upper boundary of the 95% confidence interval of <1 undifferentiated cell per 1 billion day-28 differentiated cells), on the basis of immunostaining and real-time polymerase chain reaction-based assays. Serotonergic neurons, a potential cause of graft-induced dyskinesia (Olanow et al. Ann Neurol 2003; 54:403-14), were not detected in the final product.

[7] = tested on: voltage-gated Na+ channels; format: cell-based, human

Row | SMILES | efficiency of elimination of undifferentiated hiPSCs [1] [%] | viable cells ([1]; 100,000 undifferentiated C4 cells, >20 μM quercetin for >16 hours, cultured for a total of 48 hours) | cell viability and cell number at D11 [2] | AP+ colonies ([3]; 40 μM quercetin for 16 hours, up to 10^5 hiPSCs plated, 6 days culture) | efficacy of quercetin treatment ([3]; colony forming assay) [%] | calculated number of undifferentiated cells [4] | NANOG+ cells [5] | remaining undifferentiated iPSCs, upper boundary of the 95% confidence interval [6] | transient inward currents evoked by voltage pulses from −70 mV to +40 mV [7]
1 | O=c1c(O)c(-c2ccc(O)c(O)c2)oc2cc(O)cc(O)c12 [quercetin, 3,3′,4′,5,7-pentahydroxyflavone] | > 99.99 | undetectable | Neither cell viability nor number was affected | no AP′ colonies detected | > 99.99 | less than 1 cell per 100,000 cells | none were detected | < 1 undifferentiated cell per 1 billion day-28 differentiated cells | –
2 | NC1=N[C@H](O)[C@H]2[C@H]3O[C@]4(O)O[C@@H]([C@@H](O)[C@@]2(N1)[C@@H]4O)[C@]3(O)CO [TTX, tetrodotoxin] | – | – | – | – | – | – | – | – | completely blocked
